# Experimental data published in patent US7101707B2, “Secondary sprouting for isolation and expansion of endothelial sprout cells and endothelial precursor cells from a mixed population and for screening substances” (Cedars-Sinai Medical Center, priority 2002, dated 2006).
# Numbered stars: 1 amine (or outer) side, 2 acyl side, 3 side chain; on linkers, the order of the positions; unused ones are H or OH. Bridge positions count the residues as written; N and C are the ends. Square brackets hold non-standard residues; d marks the D form. Peptide text beside a SMILES is read from it. I, II: the chains in the order shown. Actinocin(9to1) = Cc1c2oc3c(C)ccc(C(=O)[*:1])c3nc-2c(C(=O)[*:2])c(N)c1=O; NMeV = CN[C@H](C(=O)O)C(C)C; Sar = CNCC(=O)O
# How the values were obtained:
# REC [1] = experiment: Angiogenic assays taken together (proliferation, secondary sprouting, migration, tube formation); assay type: cell-based, bovine; settings: all assays
# Method: Treatment of REC cultures. Duplicate REC cultures on plastic (for migration) or MATRIGEL™ biological cell culture substrate with the same number of cells per dish are treated with previously established working concentrations of signaling inhibitors and/or select growth factor combinations. Treatments begin at the time of seeding the cells and medium is changed every other day. Single growth factors are used as negative controls since their modulation of TN-C effects was minimal. Working growth factor concentrations were as follows: VEGF, 1–50 ng/mL depending on the assay; PlGF, 100 ng/mL; FGF-2, 10–100 ng/mL; IGF-I, 25–100 ng/mL; PDGF-BB, 10–100 ng/mL. When used as combinations, each growth factor was supplied at 10 ng/mL for optimum synergy. The already tested inhibitors of signaling molecules (Sigma, Calbiochem, BIOMOL) were used at the following optimized doses: protein kinase A (inhibitor: H89 [25 μM]), PKC (inhibitor: calphostin C [2.5 μM]), PKC-β (inhibitor: LY379196 [50 nM]), Ca^2+/calmodulin kinase II (inhibitor: KN-93 [0.5 μM]), CK1 (inhibitor: CKI-7 [50 μM]), MEK-ERK (inhibitor: PD98059 [10 μM]), p38 MAP kinase (inhibitor: SB202190 [10 μM]), PI3 kinase (inhibitor: wortmannin [100 nM]), CK2 (inhibitors: emodin [20–25 μM] and DRB [20–25 μM]), CK2 and other kinases (inhibitor: quercetin [50 μM]); and a negative control for kinase inhibition (SB202474 [10 μM]). […]
# bovine REC [2] = experiment: Migration (wound healing) assay; assay type: cell-based
# Method: Migration assay. REC migration rates were examined in a wound healing assay, where cells migrate over time into the scrape wound in a monolayer. Briefly, cells were seeded in 24-well plates and allowed to reach confluence in growth medium. Prior to growth factor treatment, cells were serum-starved overnight in incomplete BREC medium with 0.5% FCS. All monolayers within an experiment were wounded with a single sterile wood stick of constant diameter, to ensure uniformity in the wound areas among different treatments. Wounded monolayers were then rinsed with low-serum medium to remove detached cells and treated with various combinations of human growth factors at 10 ng/mL each. On day 7, cells were rinsed 3× with PBS and fixed with methanol for 15 min, rehydrated with dH2O and stained with Meyer's hematoxylin for 5 min, followed by destaining with dH2O. All wells were photographed with a 4× or 10× objective using a Kodak MDS 100 digital camera attached to a Leitz DM IL inverted microscope. The original wound area was measured at 0 hr and used as a baseline for comparison to the treated wells at the conclusion of the experiment. The number of cells migrated into the wound was determined. Migrating cell counting was automated using the AAB (Advanced American Biotechnology, Fullerton, Calif.) software. Data were calculated and statistically analyzed (Spirin K S et al., Basement membrane and growth factor gene expression in normal and diabetic human retinas, Curr. Eye Res. 18:490–499 [1999]) relative to control cultures that received the same concentrations of bovine serum albumin instead of growth factors and/or inhibitor, compared to vehicle instead of inhibitor after wounding. Inhibitors were added 30 min before growth factors.
# [3] = Solubility of emodin in injection vehicle; assay type: physicochemical; settings: phosphate-buffered saline with 20% PEG 400 + 2% Tween-80, pH 7.2
# Method: A minimum of 5 mouse pups were used per group. Emodin at 20–30 μg/g of body mass (or 10 μl/g) was prepared as a solution (70% ethanol) or suspension (PEG-Tween) in vehicle. Vehicle (“emodin solvent”) was 70% ethanol in initial experiments. In three later experiments, phosphate-buffered saline with 20% polyethylene glycol 400 (PEG 400)+2% Tween-80, pH 7.2, was used as vehicle.
# REC [4] = experiment: Capillary-like tube formation on MATRIGEL; assay type: cell-based, bovine; settings: basal and growth factor-stimulated (CK2 blockers); H-7 preliminary, not shown
# Method: (§1) In vitro MATRIGEL™ biological cell culture substrate assay of capillary-like tube formation and secondary sprouting. […] Briefly, 50 μL of reconstituted basement membrane matrix from mouse EHS tumor (BD or GFR MATRIGEL™ biological cell culture substrate; Becton Dickinson Labware, Bedford, Mass.) were dispensed with frozen pipettes into each well of a previously frozen, sterile 96-well plate sitting on wet ice and allowed to solidify for 1 hr at room temperature or 37° C. Approximately 5×10^4 or 7.5×10^4 REC in a 100 μL volume were seeded into each triplicate well. Human recombinant or purified growth factors were added to a final concentration of 10 ng/mL (or as noted) in 0.5% FCS incomplete BREC medium. Capillary-like tube structures formed by REC on reconstituted basement membrane matrix were photographed at various intervals ranging from 12–72 hr; pictures were scanned, digitized and analyzed using image-processing software.
# [5] = test system: retinal neovascularization; experiment: Oxygen-induced retinopathy in newborn mice; assay type: in vivo, mouse
# bovine REC [6] = experiment: REC proliferation assay (MTS); assay type: cell-based; settings: basal and growth factor-stimulated (CK2 blockers); H-7 preliminary, not shown
# Method: REC proliferation and survival assays. 96-well plates were coated with various amounts of TN-C or vehicle. 5×10^3 cells were added to each triplicate well in low-serum REC medium with various amounts of growth factors (0.5% FCS incomplete BREC medium containing 10 ng/ml of human IGF-I, FGF-2, VEGF, PlGF and PDGF-BB [R&D Systems Inc., Minneapolis, Minn.]). Cell numbers were determined on days 4–7 using the MTS cell proliferation assay (Promega Corp.) according to manufacturer's instructions. Survival was measured in the same way using high glucose (30 mM) or chemical hypoxia (2 mM sodium azide) or serum-free medium to induce cell death. Cell numbers were determined on days 4–7 using MTS assay (Promega).
# bovine REC [7] = experiment: Secondary sprouting assay on reconstituted basement membrane matrix (MTS); assay type: cell-based; settings: basal and growth factor-stimulated (CK2 blockers); H-7 preliminary, not shown
# Method: as §1
# For the secondary sprouting assay, cells on reconstituted basement membrane matrix were seeded as above but incubated in 0.5% FCS incomplete BREC medium without any growth factors for 3 days, allowing for tube formation and collapse. On day 3, human recombinant or purified growth factors were added to a final concentration of 10 ng/mL (or as noted) in low-serum incomplete BREC medium and incubated for another 5–6 days. Digital photographs were obtained with a Kodak MDS 100 camera attached to a Leitz DM IL inverted microscope. Digitized images obtained with a Kodak MDS 100 video camera were stored on compact discs and quantified with NIH Image 1.62 software. The number of living cells in the sprouting colonies were determined using the MTS cell proliferation assay.
# A good correlation was observed between the spherical volume and the number of live cells in secondary sprouting colonies (not shown). Since the latter is an easy parameter to test by using the MTS assay, it was adopted as a faster method for studying the effect of various agents on secondary sprouting.
SMILES,effect of inhibitors in angiogenic assays (REC [1]),"effect of kinase inhibitors on migration (bovine REC [2]; basal and growth factor-stimulated (CK2 blockers), H-7 preliminary, not shown)","effect on growth factor-mediated cell migration (bovine REC [2]; four GFs 10 ng/ml each, 7 days, 0.5% serum, emodin 10 μM, DRB 15 μM)",solubility in vehicle [3],effect of kinase inhibitors on tube formation (REC [4]),neovascular tufts in fluorescein angiograms vs vehicle control ([5]; intraperitoneal),retinal vascularization in fluorescein angiograms vs vehicle control ([5]; intraperitoneal),"diminution of retinal neovascularization (preretinal nuclei count) ([5]; two intraperitoneal injections daily, day 11 to 17 after birth, emodin 20–30 μg/g, vs untreated or vehicle)",effect of kinase inhibitors on proliferation (bovine REC [6]),effect of kinase inhibitors on secondary sprouting (bovine REC [7])
"Cc1c2oc3c(C)ccc(C(=O)N[C@@H]4C(=O)N[C@H](C(C)C)C(=O)N5CCC[C@H]5C(=O)N(C)CC(=O)N(C)[C@@H](C(C)C)C(=O)O[C@@H]4C)c3nc-2c(C(=O)N[C@@H]2C(=O)N[C@H](C(C)C)C(=O)N3CCC[C@H]3C(=O)N(C)CC(=O)N(C)[C@@H](C(C)C)C(=O)O[C@@H]2C)c(N)c1=O [Actinomycin D] (I: T[dV]P[Sar][NMeV] / II: T[dV]P[Sar][NMeV]; ester I:1-I:C, II:1-II:C; linker I:N-II:N via Actinocin(9to1))",only minor changes,–,–,–,–,–,–,–,–,–
"Cc1cc(O)c2c(c1)C(=O)c1cc(O)cc(O)c1C2=O [emodin, 3-methyl-1,6,8-trihydroxyanthraquinone]",–,potently inhibited,significant inhibitory effect,did not ensure emodin solubility,potently inhibited,much less pronounced,significantly less vascularization,70–75%,potently inhibited,potently inhibited
